This is an account of results in ChEMBL document CHEMBL1137109, “Structure-based virtual screening and biological evaluation of potent and selective ADAM12 inhibitors” (Bioorg Med Chem Lett, 2004).

Assay [1] has as its target T1, Disintegrin and metalloproteinase domain-containing protein 12 (Homo sapiens, UniProt O43184).
T1 sequence (O43184 whole entry): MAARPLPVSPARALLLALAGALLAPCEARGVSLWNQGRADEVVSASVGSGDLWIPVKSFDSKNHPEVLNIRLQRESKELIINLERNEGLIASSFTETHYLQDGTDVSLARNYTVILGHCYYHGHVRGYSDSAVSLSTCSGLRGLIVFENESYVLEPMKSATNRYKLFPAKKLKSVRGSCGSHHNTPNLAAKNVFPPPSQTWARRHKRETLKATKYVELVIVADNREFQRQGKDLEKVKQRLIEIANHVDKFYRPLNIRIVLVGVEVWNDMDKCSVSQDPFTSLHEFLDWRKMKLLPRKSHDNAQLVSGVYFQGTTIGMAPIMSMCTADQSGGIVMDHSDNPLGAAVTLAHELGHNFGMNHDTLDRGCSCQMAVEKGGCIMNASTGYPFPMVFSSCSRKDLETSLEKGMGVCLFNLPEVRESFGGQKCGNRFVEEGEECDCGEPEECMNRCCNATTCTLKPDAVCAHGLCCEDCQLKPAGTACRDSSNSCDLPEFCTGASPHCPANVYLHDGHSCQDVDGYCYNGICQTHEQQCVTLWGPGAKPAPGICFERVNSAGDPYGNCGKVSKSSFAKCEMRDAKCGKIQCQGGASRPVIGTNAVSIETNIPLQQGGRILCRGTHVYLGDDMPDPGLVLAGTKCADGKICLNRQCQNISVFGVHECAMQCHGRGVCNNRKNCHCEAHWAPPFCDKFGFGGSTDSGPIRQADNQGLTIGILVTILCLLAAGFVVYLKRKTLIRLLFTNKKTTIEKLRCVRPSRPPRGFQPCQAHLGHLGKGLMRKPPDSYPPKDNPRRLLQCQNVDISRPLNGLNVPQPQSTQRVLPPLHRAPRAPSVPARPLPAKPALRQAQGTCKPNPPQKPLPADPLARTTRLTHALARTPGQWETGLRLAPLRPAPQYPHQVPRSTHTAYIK
The experiment in a line: Inhibition of A disintegrin and metalloprotease domain 12 (ADAM12) binding in cell based assay.

In assay [2] the target is T2, Disintegrin and metalloproteinase domain-containing protein 10 (Homo sapiens, UniProt O14672).
T2 sequence (O14672 whole entry): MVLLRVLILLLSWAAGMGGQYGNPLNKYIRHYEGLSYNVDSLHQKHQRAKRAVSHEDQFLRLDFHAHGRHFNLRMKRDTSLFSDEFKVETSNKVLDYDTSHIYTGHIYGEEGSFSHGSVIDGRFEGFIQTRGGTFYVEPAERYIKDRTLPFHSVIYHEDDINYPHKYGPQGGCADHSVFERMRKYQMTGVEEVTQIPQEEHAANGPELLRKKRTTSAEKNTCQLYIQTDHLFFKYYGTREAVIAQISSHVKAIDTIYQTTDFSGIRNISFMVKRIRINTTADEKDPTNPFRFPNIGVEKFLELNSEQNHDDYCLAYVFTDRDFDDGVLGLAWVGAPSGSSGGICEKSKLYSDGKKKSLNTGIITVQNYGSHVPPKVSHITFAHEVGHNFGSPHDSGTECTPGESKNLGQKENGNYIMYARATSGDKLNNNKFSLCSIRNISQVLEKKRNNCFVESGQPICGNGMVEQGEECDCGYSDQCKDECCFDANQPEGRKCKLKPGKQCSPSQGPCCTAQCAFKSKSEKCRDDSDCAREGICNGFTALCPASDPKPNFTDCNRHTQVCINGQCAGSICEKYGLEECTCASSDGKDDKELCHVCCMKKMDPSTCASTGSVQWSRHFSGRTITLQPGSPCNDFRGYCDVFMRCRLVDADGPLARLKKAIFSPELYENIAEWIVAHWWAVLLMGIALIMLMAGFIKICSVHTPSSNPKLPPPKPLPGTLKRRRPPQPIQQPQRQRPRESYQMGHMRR
The experiment in a line: In vitro inhibition of A disintegrin and metalloprotease domain 10 (ADAM10).

The target of assay [3] is Disintegrin and metalloproteinase domain-containing protein 17 (Homo sapiens, UniProt P78536). The experiment in a line: In vitro inhibition of A disintegrin and metalloprotease domain 17 (ADAM17, TACE).
Sequence of Disintegrin and metalloproteinase domain-containing protein 17 (P78536 whole entry, the tested form may be a part): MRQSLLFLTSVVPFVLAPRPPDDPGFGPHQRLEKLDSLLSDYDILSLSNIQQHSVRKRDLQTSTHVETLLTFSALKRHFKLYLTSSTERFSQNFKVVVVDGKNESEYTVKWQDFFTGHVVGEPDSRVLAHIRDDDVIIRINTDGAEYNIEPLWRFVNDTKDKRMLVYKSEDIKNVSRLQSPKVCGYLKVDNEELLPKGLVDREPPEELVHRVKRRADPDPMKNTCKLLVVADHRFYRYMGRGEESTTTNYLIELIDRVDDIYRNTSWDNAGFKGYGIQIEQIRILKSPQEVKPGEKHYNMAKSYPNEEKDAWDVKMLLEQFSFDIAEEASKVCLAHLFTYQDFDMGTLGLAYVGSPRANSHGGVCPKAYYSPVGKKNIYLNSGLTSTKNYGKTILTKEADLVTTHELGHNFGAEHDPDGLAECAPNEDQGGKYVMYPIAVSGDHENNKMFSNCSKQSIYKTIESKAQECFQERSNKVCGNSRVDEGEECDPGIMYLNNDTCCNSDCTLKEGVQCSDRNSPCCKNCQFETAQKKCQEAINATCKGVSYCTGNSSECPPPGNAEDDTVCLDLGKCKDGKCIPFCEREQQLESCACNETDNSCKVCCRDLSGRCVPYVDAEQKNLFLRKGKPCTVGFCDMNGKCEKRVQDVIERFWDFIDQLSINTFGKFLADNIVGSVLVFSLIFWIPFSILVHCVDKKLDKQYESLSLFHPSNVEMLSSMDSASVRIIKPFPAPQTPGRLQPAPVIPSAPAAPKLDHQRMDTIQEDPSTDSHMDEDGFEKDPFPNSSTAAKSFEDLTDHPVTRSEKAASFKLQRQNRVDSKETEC
Assay [4] has as its target T3, Disintegrin and metalloproteinase domain-containing protein 9 (Homo sapiens, UniProt Q13443).
T3 sequence (Q13443 whole entry): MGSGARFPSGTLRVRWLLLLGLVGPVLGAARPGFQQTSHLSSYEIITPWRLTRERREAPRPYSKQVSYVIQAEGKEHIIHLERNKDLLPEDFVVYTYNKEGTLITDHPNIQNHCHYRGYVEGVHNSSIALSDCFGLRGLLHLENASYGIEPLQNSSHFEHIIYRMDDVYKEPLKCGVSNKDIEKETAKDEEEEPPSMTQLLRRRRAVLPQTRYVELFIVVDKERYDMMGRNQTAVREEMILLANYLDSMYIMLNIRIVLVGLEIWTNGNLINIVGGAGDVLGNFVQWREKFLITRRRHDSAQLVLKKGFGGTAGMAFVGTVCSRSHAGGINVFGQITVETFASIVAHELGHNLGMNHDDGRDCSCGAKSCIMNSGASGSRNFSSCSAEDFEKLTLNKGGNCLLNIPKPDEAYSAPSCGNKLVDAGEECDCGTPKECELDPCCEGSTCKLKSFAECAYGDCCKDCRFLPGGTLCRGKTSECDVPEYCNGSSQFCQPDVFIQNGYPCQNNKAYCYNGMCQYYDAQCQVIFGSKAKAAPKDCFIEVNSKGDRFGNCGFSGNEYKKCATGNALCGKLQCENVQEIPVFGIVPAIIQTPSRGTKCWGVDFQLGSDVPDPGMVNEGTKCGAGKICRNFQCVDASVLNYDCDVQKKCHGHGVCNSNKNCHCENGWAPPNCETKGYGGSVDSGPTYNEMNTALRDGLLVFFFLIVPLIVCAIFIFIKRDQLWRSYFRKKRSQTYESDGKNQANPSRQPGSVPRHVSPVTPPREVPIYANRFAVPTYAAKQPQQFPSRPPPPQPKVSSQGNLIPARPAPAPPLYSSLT
The experiment in a line: In vitro inhibition of A disintegrin and metalloprotease domain 9 (ADAM9).

Turning to `CC(C)C(NC(=O)/C(=C\c1ccccc1F)NC(=O)c1ccccc1)C(=O)O` (stereo unspecified), the half-inhibitory concentration (IC50) in assay [1] was 40.5 nM; in assay [2] it was greater than 10500 nM.
For `CNC(=O)[C@H](Cc1c[nH]c2ccccc12)NC(=O)[C@@H](CC(=O)NO)CC(C)C` [ILOMASTAT], the half-maximal inhibitory concentration (IC50) stood at 7.5 nM in assay [3], 5.93 nM in assay [1], 1 nM in assay [4] and 8.1 nM in assay [2].
As to `O=C(O)CNC(=O)/C(=C\c1cccc(Br)c1)NC(=O)c1ccco1`, the concentration for half-maximal inhibition (IC50) in assay [1] is 16.7 nM; in assay [2], greater than 10500 nM.
For `CC(NC(=O)/C(=C\c1ccco1)NC(=O)c1ccco1)C(=O)O` (stereo unspecified), the IC50 is 42.3 nM in assay [1] and 10500 nM in assay [2].
In turn, `CC(NC(=O)/C(=C\c1ccc(Br)cc1)NC(=O)c1ccc(Br)o1)C(=O)O` (stereo unspecified) returned a half-maximal inhibitory concentration (IC50) in assay [1] of 24.8 nM.
